Results from ChEMBL document CHEMBL3885861, “Open TG-GATES”.

Species: Rattus norvegicus
Experiment: Open TG-GATES - Regimen: Daily Repeat
Assay type: toxicity, organism-based, Sprague-Dawley
Parameters: regimen Daily Repeat, gender Male, age 6 weeks
Conditions: in vivo, po, 100 mg/kg, route gavage, dose level Low; for APTT / Bas / Eos / Fbg / Hb / Ht / Lym / MCH / MCHC / MCV / Mono / Neu / PT / Plat / RBC / Ret / WBC: tissue Blood; for KIDNEY_L / KIDNEY_R / KIDNEY_TOTAL: tissue Kidney; for LIVER: tissue Liver; for A/G / ALP / ALT / AST / BUN / CRE / Ca / Cl / DBIL / GLC / IP / K / LDH / Na / PL / RALB / TBIL / TC / TG / TP / gamma-GTP: tissue Plasma

Work on `COc1ccc(Cl)cc1C(=O)NCCc1ccc(S(=O)(=O)NC(=O)NC2CCCCC2)cc1` [GLYBURIDE] yielded a TERMINAL_BW (72 h, time 3 day) of 227.4 g, an APTT (72 h, time 3 day) of 20.1 s and a Bas (72 h, time 3 day) of 0%. It also gave an Eos (72 h, time 3 day) of 1%, a Fbg (72 h, time 3 day) of 222.4 mg/dL and a Hb (72 h, time 3 day) of 13.6 g/dL. For the same molecule, the Ht (72 h, time 3 day) was 40.3%, the Lym (72 h, time 3 day) was 83% and the MCH (72 h, time 3 day) was 21.4 pg. For the same molecule, the MCHC (72 h, time 3 day) was 33.6%, the MCV (72 h, time 3 day) was 63.7 fL and the Mono (72 h, time 3 day) was 2.6%. The Neu (72 h, time 3 day) was 12.8%, the PT (72 h, time 3 day) was 12.2 s and the Plat (72 h, time 3 day) was 115.5 x10_4/uL. For the same molecule, the RBC (72 h, time 3 day) was 632.6 x10_4/ul, the Ret (72 h, time 3 day) was 5.2% and the WBC (72 h, time 3 day) was 104.4 x10_2/uL. The KIDNEY_L (72 h, time 3 day) was 1 g, the KIDNEY_R (72 h, time 3 day) was 1 g and the KIDNEY_TOTAL (72 h, time 3 day) was 1.9 g. The LIVER (72 h, time 3 day) was 10.6 g, the A/G (72 h, time 3 day) was 1.7 and the ALP (72 h, time 3 day) was 952 IU/L. For the same molecule, the ALT (72 h, time 3 day) was 42 IU/L, the AST (72 h, time 3 day) was 65.4 IU/L and the BUN (72 h, time 3 day) was 15 mg/dL. It also gave a CRE (72 h, time 3 day) of 0.4 mg/dL, a Ca (72 h, time 3 day) of 10.9 mg/dL and a Cl (72 h, time 3 day) of 103 meq/L. The DBIL (72 h, time 3 day) was 0.1 mg/dL, the GLC (72 h, time 3 day) was 187.8 mg/dL and the IP (72 h, time 3 day) was 6.9 mg/dL. For the same molecule, the K (72 h, time 3 day) was 3.8 meq/L, the LDH (72 h, time 3 day) was 183.6 IU/L and the Na (72 h, time 3 day) was 141.6 meq/L. For the same molecule, the PL (72 h, time 3 day) was 153.8 mg/dL, the RALB (72 h, time 3 day) was 3.5 g/dL and the TBIL (72 h, time 3 day) was 0.1 mg/dL. For the same molecule, the TC (72 h, time 3 day) was 75.4 mg/dL, the TG (72 h, time 3 day) was 113 mg/dL and the TP (72 h, time 3 day) was 5.6 g/dL. It also gave a gamma-GTP (72 h, time 3 day) of 1.4 IU/L, a TERMINAL_BW ([…], time 7 day) of 265.1 g and a TERMINAL_BW ([…], time 14 day) of 301.6 g. The TERMINAL_BW ([…], time 28 day) was 376.3 g, the APTT ([…], time 7 day) was 19.7 s and the Bas ([…], time 7 day) was 0.2%. For the same molecule, the Eos ([…], time 7 day) was 0.8%, the Fbg ([…], time 7 day) was 223 mg/dL and the Hb ([…], time 7 day) was 13 g/dL. It also gave a Ht ([…], time 7 day) of 38.5%, a Lym ([…], time 7 day) of 79.4% and an MCH ([…], time 7 day) of 21 pg. For the same molecule, the MCHC ([…], time 7 day) was 33.7%, the MCV ([…], time 7 day) was 62.3 fL and the Mono ([…], time 7 day) was 3%. The Neu ([…], time 7 day) was 16.4%, the PT ([…], time 7 day) was 12.5 s and the Plat ([…], time 7 day) was 124.6 x10_4/uL. It also gave an RBC ([…], time 7 day) of 618 x10_4/ul, a Ret ([…], time 7 day) of 5.6% and a WBC ([…], time 7 day) of 123.7 x10_2/uL. It also gave an APTT ([…], time 14 day) of 19.3 s, a Bas ([…], time 14 day) of 0% and an Eos ([…], time 14 day) of 1%. For the same molecule, the Fbg ([…], time 14 day) was 224.6 mg/dL, the Hb ([…], time 14 day) was 14.3 g/dL and the Ht ([…], time 14 day) was 40.2%. It also gave a Lym ([…], time 14 day) of 78%, an MCH ([…], time 14 day) of 21 pg and an MCHC ([…], time 14 day) of 35.6%. It also gave an MCV ([…], time 14 day) of 59.2 fL, a Mono ([…], time 14 day) of 2.2% and a Neu ([…], time 14 day) of 17.8%. The PT ([…], time 14 day) was 12.3 s, the Plat ([…], time 14 day) was 122 x10_4/uL and the RBC ([…], time 14 day) was 679.6 x10_4/ul. For the same molecule, the Ret ([…], time 14 day) was 3.9%, the WBC ([…], time 14 day) was 137.4 x10_2/uL and the APTT ([…], time 28 day) was 23 s. It also gave a Bas ([…], time 28 day) of 0%, an Eos ([…], time 28 day) of 0.8% and a Fbg ([…], time 28 day) of 207.8 mg/dL. For the same molecule, the Hb ([…], time 28 day) was 15.2 g/dL, the Ht ([…], time 28 day) was 43.5% and the Lym ([…], time 28 day) was 82.6%. It also gave an MCH ([…], time 28 day) of 19.3 pg, an MCHC ([…], time 28 day) of 34.9% and an MCV ([…], time 28 day) of 55.4 fL. For the same molecule, the Mono ([…], time 28 day) was 2.4%, the Neu ([…], time 28 day) was 13.4% and the PT ([…], time 28 day) was 12.7 s. The Plat ([…], time 28 day) was 105.5 x10_4/uL, the RBC ([…], time 28 day) was 786.4 x10_4/ul and the Ret ([…], time 28 day) was 2.6%. For the same molecule, the WBC ([…], time 28 day) was 115.6 x10_2/uL, the KIDNEY_L ([…], time 7 day) was 1.1 g and the KIDNEY_R ([…], time 7 day) was 1.1 g. For the same molecule, the KIDNEY_TOTAL ([…], time 7 day) was 2.2 g, the KIDNEY_L ([…], time 14 day) was 1.1 g and the KIDNEY_R ([…], time 14 day) was 1.2 g. It also gave a KIDNEY_TOTAL ([…], time 14 day) of 2.3 g, a KIDNEY_L ([…], time 28 day) of 1.3 g and a KIDNEY_R ([…], time 28 day) of 1.3 g. The KIDNEY_TOTAL ([…], time 28 day) was 2.6 g, the LIVER ([…], time 7 day) was 12.7 g and the LIVER ([…], time 14 day) was 13 g. For the same molecule, the LIVER ([…], time 28 day) was 15.8 g, the A/G ([…], time 7 day) was 1.5 and the ALP ([…], time 7 day) was 816.2 IU/L. For the same molecule, the ALT ([…], time 7 day) was 35.2 IU/L, the AST ([…], time 7 day) was 60.2 IU/L and the BUN ([…], time 7 day) was 15.8 mg/dL. For the same molecule, the CRE ([…], time 7 day) was 0.4 mg/dL, the Ca ([…], time 7 day) was 11 mg/dL and the Cl ([…], time 7 day) was 102.4 meq/L. The DBIL ([…], time 7 day) was 0.1 mg/dL, the GLC ([…], time 7 day) was 196 mg/dL and the IP ([…], time 7 day) was 7.3 mg/dL. The K ([…], time 7 day) was 4.1 meq/L, the LDH ([…], time 7 day) was 155.2 IU/L and the Na ([…], time 7 day) was 140.6 meq/L. For the same molecule, the PL ([…], time 7 day) was 151.8 mg/dL, the RALB ([…], time 7 day) was 3.4 g/dL and the TBIL ([…], time 7 day) was 0.2 mg/dL. For the same molecule, the TC ([…], time 7 day) was 78.4 mg/dL, the TG ([…], time 7 day) was 116.4 mg/dL and the TP ([…], time 7 day) was 5.7 g/dL. The gamma-GTP ([…], time 7 day) was 1.2 IU/L, the A/G ([…], time 14 day) was 1.4 and the ALP ([…], time 14 day) was 1042 IU/L. It also gave an ALT ([…], time 14 day) of 37 IU/L, an AST ([…], time 14 day) of 63.6 IU/L and a BUN ([…], time 14 day) of 15.2 mg/dL. It also gave a CRE ([…], time 14 day) of 0.5 mg/dL, a Ca ([…], time 14 day) of 10.7 mg/dL and a Cl ([…], time 14 day) of 102.2 meq/L. The DBIL ([…], time 14 day) was 0.1 mg/dL, the GLC ([…], time 14 day) was 193.2 mg/dL and the IP ([…], time 14 day) was 6.4 mg/dL. The K ([…], time 14 day) was 3.9 meq/L, the LDH ([…], time 14 day) was 138.2 IU/L and the Na ([…], time 14 day) was 140.2 meq/L. The PL ([…], time 14 day) was 166.4 mg/dL, the RALB ([…], time 14 day) was 3.5 g/dL and the TBIL ([…], time 14 day) was 0.2 mg/dL. It also gave a TC ([…], time 14 day) of 81.2 mg/dL, a TG ([…], time 14 day) of 116.8 mg/dL and a TP ([…], time 14 day) of 6 g/dL. For the same molecule, the gamma-GTP ([…], time 14 day) was 0.6 IU/L, the A/G ([…], time 28 day) was 1.4 and the ALP ([…], time 28 day) was 594 IU/L. For the same molecule, the ALT ([…], time 28 day) was 33.6 IU/L, the AST ([…], time 28 day) was 58.4 IU/L and the BUN ([…], time 28 day) was 14.6 mg/dL. The CRE ([…], time 28 day) was 0.5 mg/dL, the Ca ([…], time 28 day) was 10.4 mg/dL and the Cl ([…], time 28 day) was 103.6 meq/L. The DBIL ([…], time 28 day) was 0.09 mg/dL, the GLC ([…], time 28 day) was 213.6 mg/dL and the IP ([…], time 28 day) was 6.4 mg/dL. For the same molecule, the K ([…], time 28 day) was 3.9 meq/L, the LDH ([…], time 28 day) was 147 IU/L and the Na ([…], time 28 day) was 141 meq/L. The PL ([…], time 28 day) was 137.4 mg/dL, the RALB ([…], time 28 day) was 3.4 g/dL and the TBIL ([…], time 28 day) was 0.2 mg/dL. For the same molecule, the TC ([…], time 28 day) was 69 mg/dL, the TG ([…], time 28 day) was 98.8 mg/dL and the TP ([…], time 28 day) was 5.8 g/dL. It also gave a gamma-GTP ([…], time 28 day) of 1.4 IU/L.
